Emax and EC50 data for eleven compounds are collected here from patent US12398119B2, “Piperazine azaspiro derivatives” (PFIZER INC., priority 2018, dated 2025).

The target of this test is T1, Human M4 mAChR (Homo sapiens, UniProt P08173).
T1 construct: host or cells: HEK293 (Sor-L9 HEK293 human/M4/GloSensor Cell Clone Number 40)
T1 sequence (P08173 1-479): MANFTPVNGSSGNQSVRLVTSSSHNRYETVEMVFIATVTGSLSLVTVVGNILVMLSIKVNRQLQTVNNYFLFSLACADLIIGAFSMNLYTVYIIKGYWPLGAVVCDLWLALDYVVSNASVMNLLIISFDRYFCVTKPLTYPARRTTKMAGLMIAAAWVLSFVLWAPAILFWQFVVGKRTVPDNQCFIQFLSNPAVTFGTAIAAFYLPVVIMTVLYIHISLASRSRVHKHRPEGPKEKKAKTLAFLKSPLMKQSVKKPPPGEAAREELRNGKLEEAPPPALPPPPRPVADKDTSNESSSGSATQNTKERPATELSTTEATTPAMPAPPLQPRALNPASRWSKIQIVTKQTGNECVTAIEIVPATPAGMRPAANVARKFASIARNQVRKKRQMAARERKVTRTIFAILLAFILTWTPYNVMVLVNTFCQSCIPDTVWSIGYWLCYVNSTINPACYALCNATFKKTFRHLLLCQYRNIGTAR
Kind of test: Muscarinic hM4 Agonist GloSensor cAMP Assay. Type of test: cell-based. The settings on record: geometric mean; for Emax: Emax: maximum asymptote of concentration response curve, relative to ACh positive control (EC100) and DMSO, read-out: % maximum effect; for EC50: HEK293 human/M4/GloSensor cells, EC80 isoproterenol, number of determinations in parentheses, read-out: EC50. The method, boiled down: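 HEK293 GloSensor cells stably expressing human M4, plated 25,000/well overnight, equilibrated 2 h with GloSensor reagent, then exposed 7 min at room temperature to compound ([…] to 0.3 nM, 0.25% DMSO) plus EC80 isoproterenol. Luminescence normalized to 10 μM ACh (EC100) and DMSO controls; four-parameter fit gave EC50 and maximum asymptote (efficacy).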

Turning to `CCOC(=O)N1CC2(CCC(N3CCN(c4ncccc4-c4sc(C)nc4C)CC3)C2)C1` (stereo not drawn) [Example 36, ethyl 6-{4-[3-(2,4-dimethyl-1,3-thiazol-5-yl)pyridin-2-yl]piperazin-1-yl}-2-azaspiro[3.4]octane-2-carboxylate], the Emax was 80.6% and the concentration giving a half-maximal response (EC50) came to 7.72 nM.

For the compound `CCOC(=O)N1CC2(CC[C@@H](N3CCN(c4ncccc4-c4nnc(C)o4)CC3)C2)C1` [Example 51, ethyl (6R)-6-{4-[3-(5-methyl-1,3,4-oxadiazol-2-yl)pyridin-2-yl]piperazin-1-yl}-2-azaspiro[3.4]octane-2-carboxylate], the Emax was determined as 68.6% and the EC50 was found to be 1.99 nM.

As for `CCOC(=O)N1CC2(CC[C@@H](N3CCN(c4ncccc4-c4cnn(CCCCC#N)c4)CC3)C2)C1` [Example 49, ethyl (6R)-6-(4-{3-[1-(4-cyanobutyl)-1H-pyrazol-4-yl]pyridin-2-yl}piperazin-1-yl)-2-azaspiro[3.4]octane-2-carboxylate], the Emax was 60.9% and the EC50 turned out to be 0.596 nM.

`CCOC(=O)N1CCC2(CC(N3CCN(c4ncccc4-c4cscn4)CC3)C2)C1` (stereo not drawn) [Example 16, ethyl 2-{4-[3-(1,3-thiazol-4-yl)pyridin-2-yl]piperazin-1-yl}-6-azaspiro[3.4]octane-6-carboxylate]: the Emax stood at 104% and the EC50 was found to be 24.5 nM.

On to `CCOC(=O)N1CC2(CCC(N3CCN(c4ncccc4-c4cnsn4)CC3)C2)C1` (stereo not drawn) [Example 33, ethyl 6-{4-[3-(1,2,5-thiadiazol-3-yl)pyridin-2-yl]piperazin-1-yl}-2-azaspiro[3.4]octane-2-carboxylate], for which the Emax was determined as 92.3% and the EC50 was determined as 1.31 nM.

In the case of `CCOC(=O)N1CC2(CCC(N3CCN(c4ncccc4-c4cnc(OC)cn4)CC3)C2)C1` (stereo not drawn) [Example 1, ethyl 6-{4-[3-(5-methoxypyrazin-2-yl)pyridin-2-yl]piperazin-1-yl}-2-azaspiro[3.4]octane-2-carboxylate], the Emax stood at 82.7% and the EC50 was 4.59 nM.

In the case of `CCOC(=O)N1CC2(CCC(N3CCN(c4ncccc4C4CC4)CC3)C2)C1` (single isomer, unassigned) [Example 22, ethyl 6-[4-[3-cyclopropylpyridin-2-yl)piperazin-1-yl]-2-azaspiro[3.4]octane-2-carboxylate], the Emax turned out to be 107% and the EC50 was below 0.074 nM.

Consider `CCOC(=O)N1CCC2(CC(N3CCN(c4ncccc4-c4cnn(C)c4)CC3)C2)C1` (stereo not drawn) [Example 13, ethyl 2-{4-[3-(1-methyl-1H-pyrazol-4-yl)pyridin-2-yl]piperazin-1-yl}-6-azaspiro[3.4]octane-6-carboxylate], for which the Emax amounted to 92.6% and the EC50 was 4.82 nM.

For `CCOC(=O)N1CC2(CCC(N3CCN(c4ncccc4N4CCC(c5ccnn5C)CC4)CC3)C2)C1` (stereo not drawn) [Example 28, ethyl 6-(4-{3-[4-(1-methyl-1H-pyrazol-5-yl)pipendin-1-yl]pyridin-2-yl}piperazin-1-yl)-2-azaspiro[3.4]octane-2-carboxylate], the Emax came out at 60% and the EC50 was 1.78 nM.

As to `CCOC(=O)N1CC2(CCC(N3CCN(c4cccnc4OC(F)F)CC3)C2)C1` (single isomer, unassigned) [Example 19, ethyl 6-{4-[2-(difluoromethoxy)pyridin-3-yl]piperazin-1-yl}-2-azaspiro[3.4]octane-2-carboxylate], the Emax was found to be 78.4% and the EC50 is 1.45 nM.

In the case of `CCOC(=O)N1CC2(CCC(N3CCN(c4ncccc4-c4cnc(OC)cn4)CC3)C2)C1` (single isomer, unassigned) [Example 2, ethyl 6-{4-[3-(5-methoxypyrazin-2-yl)pyridin-2-yl]piperazin-1-yl}-2-azaspiro[3.4]octane-2-carboxylate], the EC50 was above 10000 nM.

One may read the EC50 as the concentration needed to bring the measured effect to its halfway point.
